Measured values reported in PubChem BioAssay AID248 (DTP/NCI, 2004).
Values joined by “and” are separate entries in the source; they are usually repeats but may differ in a detail not shown here. Identical values can stand only once. Inconclusive results and toxic doses are left out. Cut-off read from the data, not from the text of the source: active = T/C of 150% or more; inactive = T/C below 125%.

System: L1210 leukemia ip in BDF1 mice, survival T/C
Assay: NCI In Vivo Anticancer Drug Screen. Data for tumor model L1210 Leukemia (intraperitoneal) in B6D2F1 (BDF1) mice
Conditions: endpoint: mean survival time, higher = longer survival
Procedure, shortened: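 Tumor was transplanted into mice, which were then dosed with test compound or vehicle alone. Survival was recorded for each group, and the treated figure was expressed relative to the control figure.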

Measured: T/C

Nc1nc(N)nc(-c2ccccc2N=NNc2ccc([N+](=O)[O-])cc2)n1
inactive: dose: 100.0 mg/kg/injection, schedule: Q04DX002 (ip), vehicle: Klucel (hydroxypropylcellulose) (HPC) 97 % of control | dose: 200.0 mg/kg/injection, schedule: Q04DX002 (ip), vehicle: Klucel (hydroxypropylcellulose) (HPC) 93 % of control | dose: 400.0 mg/kg/injection, schedule: Q04DX002 (ip), vehicle: Klucel (hydroxypropylcellulose) (HPC) 89 % of control

NS(=O)(=O)c1ccc(N=Nc2ccc([As](=O)(O)O)cc2)cc1
inactive: dose: 100.0 mg/kg/injection, schedule: Q01DX001 (ip), vehicle: saline 98 % of control | dose: 200.0 mg/kg/injection, schedule: Q01DX001 (ip), vehicle: saline 98 % of control | dose: 400.0 mg/kg/injection, schedule: Q01DX001 (ip), vehicle: saline 98 % of control

CC(C)(Cc1ccccc1)NC(=O)N(CCCl)N=O
active: dose: 62.0 mg/kg/injection, schedule: Q01DX001 (ip), vehicle: other 151 % of control | dose: 250.0 mg/kg/injection, schedule: Q01DX001 (ip), vehicle: other 194 % of control | dose: 375.0 mg/kg/injection, schedule: Q01DX001 (ip), vehicle: other 244 % of control | dose: 500.0 mg/kg/injection, schedule: Q01DX001 (ip), vehicle: other 273 % of control | dose: 750.0 mg/kg/injection, schedule: Q01DX001 (ip), vehicle: other 263 % of control
inactive: dose: 31.0 mg/kg/injection, schedule: Q01DX001 (ip), vehicle: other 124 % of control | dose: 1000.0 mg/kg/injection, schedule: Q01DX001 (ip), vehicle: other 111 % of control

O=[N+]([O-])c1ccc(N/N=C2/CCSc3ccccc32)cc1
inactive: dose: 100.0 mg/kg/injection, schedule: Q04DX003 (ip), vehicle: acetone 100 % of control | dose: 200.0 mg/kg/injection, schedule: Q04DX003 (ip), vehicle: acetone 99 % of control | dose: 400.0 mg/kg/injection, schedule: Q04DX003 (ip), vehicle: acetone 88 % of control

C=C(Cl)CN(CCCC(=O)O)c1ccccc1
inactive: dose: 100.0 mg/kg/injection, schedule: Q01DX009 (ip), vehicle: other 108 % of control | dose: 100.0 mg/kg/injection, schedule: Q04DX003 (ip), vehicle: other 98 % of control | dose: 200.0 mg/kg/injection, schedule: Q01DX009 (ip), vehicle: other 107 % of control | dose: 200.0 mg/kg/injection, schedule: Q04DX003 (ip), vehicle: other 106 % of control | dose: 400.0 mg/kg/injection, schedule: Q01DX009 (ip), vehicle: other 102 % of control | dose: 400.0 mg/kg/injection, schedule: Q04DX003 (ip), vehicle: other 108 % of control

NCCC1CNCCN1.[Cl][Pd]([Cl])([Cl])[Cl] (stereo unspecified)
inactive: dose: 12.5 mg/kg/injection, schedule: Q01DX001 (ip), vehicle: saline 108 % of control | dose: 25.0 mg/kg/injection, schedule: Q01DX001 (ip), vehicle: saline 108 % of control | dose: 50.0 mg/kg/injection, schedule: Q01DX001 (ip), vehicle: saline 103 % of control | dose: 100.0 mg/kg/injection, schedule: Q01DX001 (ip), vehicle: DMSO 98 % of control

CC(CCC(=O)O)(NC(=O)c1ccc(NCc2ccc3nc(N)nc(N)c3c2)cc1)C(=O)O (stereo unspecified)
inactive: dose: 8.0 mg/kg/injection, schedule: Q01DX009 (ip), vehicle: saline 112 % of control | dose: 8.0 mg/kg/injection, schedule: Q04DX003 (ip), vehicle: saline 115 % of control | dose: 16.0 mg/kg/injection, schedule: Q01DX009 (ip), vehicle: saline 102 % of control | dose: 16.0 mg/kg/injection, schedule: Q04DX003 (ip), vehicle: saline 123 % of control | dose: 64.0 mg/kg/injection, schedule: Q04DX003 (ip), vehicle: saline 115 % of control | dose: 128.0 mg/kg/injection, schedule: Q04DX003 (ip), vehicle: saline 99 % of control
active: dose: 0.5 mg/kg/injection, schedule: Q01DX009 (ip), vehicle: saline 150 % of control | dose: 1.0 mg/kg/injection, schedule: Q01DX009 (ip), vehicle: saline 163 % of control and 176 % of control | dose: 4.0 mg/kg/injection, schedule: Q01DX009 (ip), vehicle: saline 163 % of control

O=C(COc1cccc(Cl)c1)Nc1cc[n+](Cc2ccc(S(=O)(=O)F)cc2)cc1
inactive: dose: 25.0 mg/kg/injection, schedule: Q04DX003 (ip), vehicle: saline with Tween-80 102 % of control | dose: 50.0 mg/kg/injection, schedule: Q04DX003 (ip), vehicle: saline with Tween-80 100 % of control | dose: 100.0 mg/kg/injection, schedule: Q04DX003 (ip), vehicle: saline with Tween-80 97 % of control and 113 % of control

O=C(Nc1ccc(Br)cc1)Oc1ccc(Nc2ccccc2)cc1
inactive: dose: 100.0 mg/kg/injection, schedule: Q01DX009 (ip), vehicle: Klucel (hydroxypropylcellulose) (HPC) 98 % of control | dose: 200.0 mg/kg/injection, schedule: Q01DX009 (ip), vehicle: Klucel (hydroxypropylcellulose) (HPC) 89 % of control | dose: 400.0 mg/kg/injection, schedule: Q01DX009 (ip), vehicle: Klucel (hydroxypropylcellulose) (HPC) 98 % of control
